Reference: patent US11249161B2, “Magnetic resonance method for detecting molecular binding with enhanced sensitivity” (The Johns Hopkins University, priority 2017, dated 2022)

How the values were obtained:
[1] = molecular target: bovine serum albumin (BSA) (Bos taurus, UniProt P02769)
Text: (§1) Maps were generated by mapping the signal difference (pre minus post infusion) between the partial spectra (−1.0 to −2.0 ppm). Field correction for static field (B0) inhomogeneities was done by creating field maps from the low power Z-spectra acquired in our study and shifting the Z-spectra voxel wise according to the WASSR method^27.

mouse brain = assay: In vivo IMMOBILISE MRI in mice after caffeine infusion
Experimental: All experiments were performed in accordance with Institutional Animal Care and Use Committee guidelines and approved by the Johns Hopkins University Animal Care and Use Committee. Eight 6-8 week old female BALB/c mice, were anesthetized by isoflurane and kept warm with a heating pad and kept in place with a stereotactic holder. […] A home-built catheter was connected to a syringe infusion through PE-50 tubing.
MRI experiments were acquired on a 11.7 T Bruker Biospec preclinical scanner (Bruker, Ettlingen, Germany) equipped with a 72 mm quadrature volume resonator for RF transmission and a 2×2 mouse phased array coil for RF reception. The saturation preparation consisted of a 3 s, 0.5 μT CW saturation pulse followed by a two-shot FSE readout. The FSE readout parameters were TR/TE=6000/4 ms, a 64×64 acquisition matrix across a field of view of 17×17 mm and slice thickness of 1 mm. […] Acquisition of each partial Z-spectra took 105 s and was continued for 1-hour post bolus and then a complete Z-spectrum was again acquired.
as §1

Chain of bovine serum albumin (BSA) (P02769 25-607): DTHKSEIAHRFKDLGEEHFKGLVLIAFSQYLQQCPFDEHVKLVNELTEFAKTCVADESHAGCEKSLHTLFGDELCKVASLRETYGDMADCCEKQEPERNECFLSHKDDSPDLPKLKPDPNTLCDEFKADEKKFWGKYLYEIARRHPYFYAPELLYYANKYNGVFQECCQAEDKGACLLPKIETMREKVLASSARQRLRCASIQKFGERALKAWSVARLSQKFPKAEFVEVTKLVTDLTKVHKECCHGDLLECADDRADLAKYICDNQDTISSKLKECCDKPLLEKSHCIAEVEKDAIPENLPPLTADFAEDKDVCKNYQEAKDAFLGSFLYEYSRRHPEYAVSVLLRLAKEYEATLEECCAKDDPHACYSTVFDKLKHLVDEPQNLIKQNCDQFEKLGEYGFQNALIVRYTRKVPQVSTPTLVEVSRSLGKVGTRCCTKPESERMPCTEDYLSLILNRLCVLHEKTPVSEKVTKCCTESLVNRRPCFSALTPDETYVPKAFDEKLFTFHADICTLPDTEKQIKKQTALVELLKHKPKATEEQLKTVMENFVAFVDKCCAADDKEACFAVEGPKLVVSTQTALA

Question: What does the source list for `Cn1c(=O)c2c(ncn2C)n(C)c1=O` [caffeine]?
Answer: factor in sensitivity enhancement [1]: ~1000; concentration of caffeine in mouse blood (estimate) (mouse brain; 2 mL blood, 50 μL of 100 mM caffeine infused): about 2.5 mM; change in water signal (detection sensitivity) (mouse brain; mice, after caffeine infusion, about 2.5 mM in blood): 1-3%; factor of enhancement (mouse brain; mice, in vivo): 30-100
